{"source": "ChEMBL document CHEMBL1201862", "about": "“PubChem BioAssay data set” (2004)", "key": {"BJ [1]": {"tested_on": "BJ", "experiment": "cytotoxicity toward BJ-TERT fibroblasts, dose response, cell-based, RAS-independent, luminescence (AID 1933)", "type": "functional", "details": "Homo sapiens"}, "BJ [2]": {"tested_on": "BJ", "experiment": "cells", "type": "functional, cell-based", "details": "Homo sapiens"}, "BJ [3]": {"tested_on": "BJ", "experiment": "cytotoxicity toward BJ-TERT-LT-ST fibroblasts, dose response, cell-based, RAS-independent, luminescence (AID 1935);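 note: BJ fibroblasts immortalized with TERT plus LT and ST oncogenes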", "type": "functional", "details": "Homo sapiens"}, "[4]": {"experiment": "cytotoxicity toward DRD oncogenic fibroblasts, dose response, cell-based, non-viral oncogenic, luminescence (AID 1934)", "type": "functional", "details": "Homo sapiens"}, "[5]": {"target": "T1, G-protein coupled receptor 55 (Homo sapiens, UniProt Q9Y2T6)", "T1 sequence (Q9Y2T6 whole entry)": "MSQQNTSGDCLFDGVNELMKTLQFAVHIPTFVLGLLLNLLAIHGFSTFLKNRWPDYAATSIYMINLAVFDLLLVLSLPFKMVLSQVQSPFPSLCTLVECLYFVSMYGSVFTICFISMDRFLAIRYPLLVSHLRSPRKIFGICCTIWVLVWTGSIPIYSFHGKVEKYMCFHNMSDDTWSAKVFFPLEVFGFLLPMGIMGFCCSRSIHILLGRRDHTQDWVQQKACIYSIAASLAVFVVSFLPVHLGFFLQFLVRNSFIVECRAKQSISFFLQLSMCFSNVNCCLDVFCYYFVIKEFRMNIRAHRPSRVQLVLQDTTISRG", "experiment": "GPR55 agonists via beta-arrestin recruitment, primary screen, imaging, U2OS cells, beta-arrestin-GFP redistribution (AID 1961)", "type": "functional"}, "[6]": {"target": "T2, Microphthalmia-associated transcription factor (Homo sapiens, UniProt O75030)", "T2 sequence (O75030 whole entry)": "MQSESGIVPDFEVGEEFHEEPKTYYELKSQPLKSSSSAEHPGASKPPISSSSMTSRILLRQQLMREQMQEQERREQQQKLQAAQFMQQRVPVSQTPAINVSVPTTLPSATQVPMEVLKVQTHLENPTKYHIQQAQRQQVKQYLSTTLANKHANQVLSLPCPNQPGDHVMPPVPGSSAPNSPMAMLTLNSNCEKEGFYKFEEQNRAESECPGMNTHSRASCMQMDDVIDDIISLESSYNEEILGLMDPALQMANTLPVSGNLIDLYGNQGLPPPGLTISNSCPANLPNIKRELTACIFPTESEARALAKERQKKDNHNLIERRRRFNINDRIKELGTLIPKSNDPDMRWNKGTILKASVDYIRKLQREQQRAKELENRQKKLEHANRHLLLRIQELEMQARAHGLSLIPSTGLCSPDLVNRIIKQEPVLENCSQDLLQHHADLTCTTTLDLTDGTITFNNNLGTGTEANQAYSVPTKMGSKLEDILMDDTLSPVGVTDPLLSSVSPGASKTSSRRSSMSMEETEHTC", "experiment": "TRPM1 promoter luciferase signal decrease, dose response, MITF inhibitor project, cell-based, SK-MEL-5, cherry-picked, set 3 (AID 493073)", "type": "functional"}, "BJ [7]": {"tested_on": "BJ", "experiment": "cytotoxicity toward Ras-transformed BJeLR fibroblasts, dose response, cell-based, alamar blue fluorescence, cherrypicked samples (AID 2631);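 note: confirmatory dose-response assay in RAS-dependent BJ fibroblasts engineered with TERT, LT and ST, with cytotoxicity read by fluorescence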", "type": "functional", "details": "Homo sapiens"}, "[8]": {"target": "T1, G-protein coupled receptor 55", "experiment": "GPR55 antagonists blocking LPI-driven arrestin recruitment, primary screen, imaging, U2OS, beta-arrestin-GFP, LPI agonist (AID 2013);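 note: antagonist potency measured as reduced agonist-driven arrestin aggregation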", "type": "functional"}, "Cryptococcus neoformans": {"tested_on": "Cryptococcus neoformans", "experiment": "PubChem AID 686997", "type": "functional, organism-based"}, "HEK293 [9]": {"tested_on": "HEK293", "experiment": "NOD1 signaling inhibitors, primary screen, cell-based, luminescence, uHTS (AID 1578)", "type": "functional", "details": "Homo sapiens"}, "HEK293 [10]": {"tested_on": "HEK293", "experiment": "cells", "type": "functional, cell-based", "details": "Homo sapiens"}, "HEK293 [11]": {"tested_on": "HEK293", "experiment": "cells", "type": "functional, cell-based", "details": "Homo sapiens", "remark": "listed apart in the source"}, "[12]": {"target": "Nucleotide-binding oligomerization domain-containing protein 2 (Homo sapiens, UniProt Q9HC29)", "sequence (Q9HC29 whole entry, the tested form may be a part)": "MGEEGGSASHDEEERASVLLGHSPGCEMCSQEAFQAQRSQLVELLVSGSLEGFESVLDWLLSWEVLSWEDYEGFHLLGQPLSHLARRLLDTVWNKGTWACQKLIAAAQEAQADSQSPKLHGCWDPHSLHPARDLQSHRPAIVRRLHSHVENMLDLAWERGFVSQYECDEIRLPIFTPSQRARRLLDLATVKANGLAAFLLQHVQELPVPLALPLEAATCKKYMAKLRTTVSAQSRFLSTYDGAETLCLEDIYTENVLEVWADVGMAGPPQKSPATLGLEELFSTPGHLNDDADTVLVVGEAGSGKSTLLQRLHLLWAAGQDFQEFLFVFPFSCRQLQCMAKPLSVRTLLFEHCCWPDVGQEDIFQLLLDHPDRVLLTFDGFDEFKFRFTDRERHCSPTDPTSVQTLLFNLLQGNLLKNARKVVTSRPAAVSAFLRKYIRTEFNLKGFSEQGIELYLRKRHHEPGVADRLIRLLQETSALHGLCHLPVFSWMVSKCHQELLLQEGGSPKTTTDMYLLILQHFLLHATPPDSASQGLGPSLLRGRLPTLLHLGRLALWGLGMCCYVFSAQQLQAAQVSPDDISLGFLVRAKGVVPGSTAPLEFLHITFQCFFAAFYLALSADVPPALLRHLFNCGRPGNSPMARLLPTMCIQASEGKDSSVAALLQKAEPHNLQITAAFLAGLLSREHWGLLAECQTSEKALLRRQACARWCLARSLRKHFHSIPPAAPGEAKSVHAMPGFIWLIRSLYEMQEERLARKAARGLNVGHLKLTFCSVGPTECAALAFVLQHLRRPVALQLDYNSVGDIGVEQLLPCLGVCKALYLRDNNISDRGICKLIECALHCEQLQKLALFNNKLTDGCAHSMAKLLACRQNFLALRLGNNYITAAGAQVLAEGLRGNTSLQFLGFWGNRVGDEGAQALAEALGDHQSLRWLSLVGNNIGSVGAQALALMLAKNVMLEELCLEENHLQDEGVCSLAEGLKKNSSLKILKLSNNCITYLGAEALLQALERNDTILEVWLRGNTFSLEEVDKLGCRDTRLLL", "experiment": "NOD2 signaling inhibitors, cell-based, luminescence, uHTS, HEK293 (AID 1566)", "type": "functional"}, "HEK293 [13]": {"tested_on": "HEK293", "experiment": "NOD2 signaling inhibitors in MDP-stimulated cells, cell-based, uHTS, luminescence (AID 2001)", "type": "functional", "details": "Homo sapiens"}, "HEK293 [14]": {"tested_on": "HEK293", "experiment": "cells", "type": "functional, cell-based", "details": "Homo sapiens", "remark": "listed apart in the source"}, "Tumor necrosis factor": {"target": "Tumor necrosis factor (Homo sapiens, UniProt P01375)", "sequence (P01375 whole entry)": "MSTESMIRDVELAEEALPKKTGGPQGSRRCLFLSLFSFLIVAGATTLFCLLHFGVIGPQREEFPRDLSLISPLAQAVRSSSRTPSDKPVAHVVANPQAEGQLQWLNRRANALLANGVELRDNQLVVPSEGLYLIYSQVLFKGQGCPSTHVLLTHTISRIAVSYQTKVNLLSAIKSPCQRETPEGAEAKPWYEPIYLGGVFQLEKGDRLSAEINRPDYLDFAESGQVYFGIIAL", "experiment": "TNFa-triggered NF-kB activation inhibitors, SAR follow-up, cell-based, revised (AID 2337)", "type": "functional"}, "[15]": {"target": "T3, Nucleotide-binding oligomerization domain-containing protein 1 (Homo sapiens, UniProt Q9Y239)", "T3 sequence (Q9Y239 whole entry)": "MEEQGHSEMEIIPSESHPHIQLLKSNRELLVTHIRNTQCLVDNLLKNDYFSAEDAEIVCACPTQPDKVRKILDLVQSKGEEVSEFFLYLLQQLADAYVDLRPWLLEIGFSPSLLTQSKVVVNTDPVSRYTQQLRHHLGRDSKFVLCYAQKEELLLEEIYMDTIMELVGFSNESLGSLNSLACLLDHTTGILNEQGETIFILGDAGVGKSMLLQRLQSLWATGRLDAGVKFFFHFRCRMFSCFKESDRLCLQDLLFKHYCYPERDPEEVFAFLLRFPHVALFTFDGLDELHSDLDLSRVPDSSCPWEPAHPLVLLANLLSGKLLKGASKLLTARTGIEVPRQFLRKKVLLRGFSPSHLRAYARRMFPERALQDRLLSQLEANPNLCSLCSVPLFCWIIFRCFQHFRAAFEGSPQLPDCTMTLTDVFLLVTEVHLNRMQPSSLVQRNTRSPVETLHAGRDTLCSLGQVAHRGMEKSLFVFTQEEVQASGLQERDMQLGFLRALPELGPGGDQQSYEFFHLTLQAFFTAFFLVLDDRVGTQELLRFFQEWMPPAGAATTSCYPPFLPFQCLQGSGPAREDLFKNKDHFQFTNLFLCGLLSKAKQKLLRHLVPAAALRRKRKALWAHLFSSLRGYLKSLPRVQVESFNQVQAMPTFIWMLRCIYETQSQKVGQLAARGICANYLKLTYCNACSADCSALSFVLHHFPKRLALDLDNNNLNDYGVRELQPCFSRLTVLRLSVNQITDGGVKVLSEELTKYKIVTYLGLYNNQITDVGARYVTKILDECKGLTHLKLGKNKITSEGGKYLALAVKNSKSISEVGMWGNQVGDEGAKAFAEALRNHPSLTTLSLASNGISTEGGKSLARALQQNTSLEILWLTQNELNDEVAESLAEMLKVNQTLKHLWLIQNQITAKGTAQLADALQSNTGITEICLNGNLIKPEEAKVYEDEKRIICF", "experiment": "NOD1 signaling inhibitors, SAR follow-up, revised (AID 2333)", "type": "functional"}, "HEK293 [16]": {"tested_on": "HEK293", "experiment": "cells", "details": "Homo sapiens"}}, "note": "The source made the active and inactive calls.", "data": [{"smiles": "COc1ccc(C(=O)/C=C/C(=O)N(CC(=O)NC2CCCCC2)Cc2ccccc2OC)c(O)c1", "values": [{"measurement": "EC50", "setting": "BJ [1]", "value": "2.2 µM (active)"}, {"measurement": "EC50", "setting": "BJ [2]", "value": "3.7 µM (active)"}, {"measurement": "EC50", "setting": "BJ [3]", "value": "2.57 µM (inconclusive)"}, {"measurement": "EC50", "setting": "[4]", "value": "3.39 µM (active)"}, {"measurement": "EC50", "setting": "[5]", "value": "> 32 µM (inactive)"}, {"measurement": "AC50", "setting": "[6]", "value": "4.04 µM (active)"}, {"measurement": "EC50", "setting": "BJ [7]", "value": "5.02 µM (inconclusive)"}]}, {"smiles": "S=C(Nc1ccc(Cl)cc1Cl)Nc1ccccc1Oc1ccccc1", "values": [{"measurement": "IC50", "setting": "[8]", "value": "4.08 µM (active)"}, {"measurement": "AC50", "setting": "Cryptococcus neoformans", "value": "44.9 µM (active)"}]}, {"smiles": "COc1ccc(N2CCN(C(=O)c3ccc(CNS(=O)(=O)c4ccc(C)cc4)cc3)CC2)cc1", "values": [{"measurement": "EC50", "setting": "HEK293 [9]", "value": "7.09 µM (active)"}, {"measurement": "IC50", "setting": "HEK293 [10]", "value": "10.1 µM (active)"}, {"measurement": "IC50", "setting": "HEK293 [11]", "value": "17.5 µM (active)"}, {"measurement": "EC50", "setting": "[12]", "value": "> 20 µM (inactive)"}, {"measurement": "IC50", "setting": "HEK293 [13]", "value": "12.5 µM (inactive)"}, {"measurement": "IC50", "setting": "HEK293 [14]", "value": "> 20 µM (inactive)"}, {"measurement": "IC50", "setting": "Tumor necrosis factor", "value": "> 20 µM (inactive)"}, {"measurement": "IC50", "setting": "[15]", "value": "> 20 µM (inactive)"}, {"measurement": "IC50", "setting": "HEK293 [16]", "value": "> 20 µM (inactive)"}]}]}
